Measurements: US6518272B2, “Cycloalkyl-substituted aryl-piperazines, piperidines and tetrahydropyridines as serotonergic agents” (Wyeth, priority 1998, dated 2003)

What was measured:
[1] = test system: depression; details: in vivo; cited from earlier work
[2] = biological target: T1, human 5-HT1A receptor (Homo sapiens, UniProt P08908); assay: Displacement of [3H] 8-OHDPAT from the 5-HT1A receptor in transfected CHO cells; type: binding
T1 construct: expressed in transfected cells; host or cells: CHO cells (stably transfected)
T1 sequence (P08908 1-422): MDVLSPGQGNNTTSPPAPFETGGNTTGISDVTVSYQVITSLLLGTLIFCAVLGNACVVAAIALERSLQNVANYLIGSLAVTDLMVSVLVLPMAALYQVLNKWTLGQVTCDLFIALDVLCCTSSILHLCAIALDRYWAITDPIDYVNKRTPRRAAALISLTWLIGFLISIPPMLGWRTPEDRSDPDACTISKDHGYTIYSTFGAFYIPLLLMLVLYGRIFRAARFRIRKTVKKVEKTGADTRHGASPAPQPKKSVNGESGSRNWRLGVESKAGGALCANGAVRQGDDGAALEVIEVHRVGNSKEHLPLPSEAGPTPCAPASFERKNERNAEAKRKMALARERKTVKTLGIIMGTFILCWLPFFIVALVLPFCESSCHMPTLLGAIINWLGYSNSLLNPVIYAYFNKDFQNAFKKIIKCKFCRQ
Text: Affinity for the serotonin 5-HT1A receptor was established by assaying the test compound's ability to displace [^3H] 8-OHDPAT from its binding site on the receptor complex in CHO cells stably transfected with the human 5-HT1A receptor following the procedure described by J. Dunlop, Y. Zhang, D. Smith and L. Schechter (Eur. J. Pharmacol., submitted; variation of a procedure described by J. Zgombick et al., Naunyn-Schmiedeberg's Arch. Pharmacol., 354, 226-236 (1996)).

[3] = biological target: T1, human 5-HT1A receptor; assay: Agonist activity: inhibition of forskolin-stimulated cAMP accumulation in transfected CHO cells; type: cell-based; details: CHO cells with human 5-HT1A receptor
Text: (§1) Methods, 40, 47-55 (1998); variation of a procedure described by J. Zgombick et al., Naunyn-Schmiedeberg's Arch. Pharmacol., 354, 226-236 (1996)].

[4] = biological target: T1, human 5-HT1A receptor; assay: Antagonist activity: antagonism of 8-OHDPAT inhibition of forskolin-stimulated cAMP accumulation in transfected CHO cells; type: cell-based; details: CHO cells with human 5-HT1A receptor
Text: as §1

[5] = test system: motion sickness and xylazine- and cis-platinin-induced vomiting; details: cited from earlier work
[6] = test system: LTP; details: cited from earlier work
[7] = test system: impairment of spatial learning caused by intrahippocampal scopolamine; details: cited from earlier work
[8] = test system: cognitive deficits induced by fornix lesions; details: marmosets; cited from earlier work
[9] = test system: antidepressant response; details: clinical trials; co-administration with the SSRI's paroxetine and fluoxetine; cited from earlier work
[10] = test system: human prostate tumor cell lines PC3, DU-145 and LNCaP; details: PC3, DU-145 and LNCaP in vitro; cited from earlier work
[11] = test system: PC3 cell line; details: athymic nude mice; cited from earlier work
[12] = displacement of [3H] 8-OHDPAT, CHO cells stably transfected with the human 5-HT1A receptor, read-out: 5-HT1A Affinity (IC50)

IC50 [2, 12] [nM]	IC50 [4] [nM]	Compound	also measured
		O=C1CC2(CCCC2)CC(=O)N1CCCCN1CCN(c2ncccn2)CC1 [Buspirone, buspirone]	antidepressant activity [1]: weak antidepressant activity
0.57		COc1ccccc1N1CCN(C[C@@H](CC2CCCCC2)NC(=O)C2CCCCC2)CC1 [Example 1, Cyclohexanecarboxylic Acid {(1R)-1-Cyclohexylmethyl-2-[4-(2-methoxyphenyl)-piperazin-1-yl]-ethyl}-amide]	EC50 [3]: 0.5 nM
2.82	10.2	COc1ccccc1N1CCN(C[C@@H](CC2CCCCC2)N(C)C(=O)C2(C)CCCCC2)CC1 [Example 4, 1-Methyl-cyclohexanecarboxylic Acid {(1R)-1-Cyclohexylmethyl-2-[4-(2-methoxyphenyl)-piperazin-1-yl]-ethyl}-methyl-amide]	
2.37	4.6	CN(C(=O)C1CCCCC1)[C@H](CC1CCCCC1)CN1CCN(c2cccc3c2OCCO3)CC1 [Example 5]	
6.92	7.3	CN(C(=O)C1(C)CCCCC1)[C@H](CC1CCCCC1)CN1CCN(c2cccc3c2OCCO3)CC1 [Example 6, 1-Methyl-cyclohexanecarboxylic Acid {(1R)-1-Cyclohexylmethyl-2-[4-(2,3-dihydro-benzo[1,4]dioxin-5-yl)-piperazin-1-yl]-ethyl}-methyl-amide]	
8.84	10.5	CN(C(=O)C1CCCCC1)[C@H](CC1CCCCC1)CN1CCN(c2cccc3[nH]ccc23)CC1 [Example 7, Cyclohexanecarboxylic Acid {(1R)-1-Cyclohexylmethyl-2-[4-(1H-indol-4-yl)-piperazin-1-yl]-ethyl}-methyl-amide]	
1.49	17.3	COc1ccccc1N1CCN(C[C@@H](CC2CCCCC2)NC=O)CC1 [Example 9, N-{(1R)-1-Cyclohexylmethyl-2-[4-(2-methoxyphenyl)-piperazin-1-yl]-ethyl}-formamide]	
0.71		O=C(N[C@H](CC1CCCCC1)CN1CCN(c2ncccn2)CC1)C1CCCCC1 [Example 10, Cyclohexanecarboxylic Acid {(1R)-1-Cyclohexylmethyl-2-[4-(pyrimidin-2-yl)-piperazin-1-yl]-ethyl}-amide]	EC50 [3]: 1.3 nM
2.4		O=C(N[C@H](CC1CCCCC1)CN1CCN(c2ncccn2)CC1)C1CCC1 [Example 11, Cyclobutane Carboxylic Acid {(1R)-1-Cyclohexylmethyl-2-[4-(pyrimidin-2-yl)-piperazin-1-yl]-ethyl}-amide]	EC50 [3]: 21.7 nM
4.14		COc1cccc(N2CCN(C[C@H](CC3CCCCC3)NC(=O)C3CCCCC3)CC2)n1 [Example 12, Cyclohexane Carboxylic Acid {(1S)-1-Cyclohexylmethyl-2-[4-(6methoxypyridin-2-yl)-piperazin-1-yl]-ethyl}-amide]	EC50 [3]: 14.8 nM
2.96		O=C(N[C@H](CC1CCCCC1)CN1CCN(c2nc3ccccc3s2)CC1)C1CCCCC1 [Example 13, Cyclohexanecarboxylic Acid {(1R)-1-Cyclohexylmethyl-2-[4-(benzothiazol-2-yl)-piperazin-1-yl]-ethyl}-amide]	EC50 [3]: 4.8 nM
1.08		COc1ccccc1C1CCN(C[C@@H](CC2CCCCC2)NC(=O)C2CCCCC2)CC1 [Example 15, Cyclohexanecarboxylic Acid {(1R)-1-Cyclohexylmethyl-2-[4-(2-methoxyphenyl)-piperidin-1-yl]-ethyl}-amide]	EC50 [3]: 3.9 nM
5.97	46	COc1ccccc1C1CCN(C[C@@H](CC2CCCCC2)NC(=O)C2(C)CCCCC2)CC1 [Example 16, 1-Methyl-cyclohexanecarboxylic acid {(1R)-1-cyclohexylmethyl-2-[4-(2-methoxyphenyl)-piperidin-1-yl]-ethyl}-amide]	
1.69	91.5	COc1ccccc1C1CCN(C[C@@H](CC2CCCCC2)N(C)C(=O)C2CCCCC2)CC1 [Example 17, Cyclohexanecarboxylic Acid {(1R)-1-Cyclohexylmethyl-2-[4-(2-methoxyphenyl)-piperidin-1-yl]-ethyl}-methyl-amide]	
5.33	97.5	COc1ccccc1C1CCN(C[C@@H](CC2CCCCC2)N(C)C(=O)C2(C)CCCCC2)CC1 [Example 18, 1-Methyl-cyclohexanecarboxylic Acid {(1R)-1-Cyclohexylmethyl-2-[4-(2-methoxypheniyl)-piperidin-1-yl]-ethyl}-methyl-amide]	
2.19	40	COc1ccccc1C1CCN(C[C@@H](CC2CCCCC2)NC(=O)C(C)(C)C)CC1 [Example 19, N-{(1R)-1-Cyclohexylmethyl-2-[4-(2-methoxyphenyl)-piperidin-1-yl]-ethyl}-2,2-dimethyl-propionamide]	
		O=C(NCCN1CCN(c2cccc3c2OC[C@H](CO)O3)CC1)c1ccc(F)cc1 [Flesinoxan]	antiemetic activity in animal models [5]: particularly active
		COc1ccccc1N1CCN(CCCCN2C(=O)c3ccccc3C2=O)CC1 [NAN-190]	effect on LTP [6]: augment LTP
		COc1ccccc1N1CCN(CC(C(=O)NC(C)(C)C)c2ccccc2)CC1 (stereo not shown) [WAY-100135]	effect on impairment of spatial learning [7]: prevented the impairment of spatial learning
		COc1ccccc1N1CCN(CCN(C(=O)C2CCCCC2)c2ccccn2)CC1 [WAY-100635]	effect on cognitive deficits induced by fornix lesions [8]: reversed the cognitive deficits
		CC(C)NCC(O)COc1cccc2[nH]ccc12 (stereo not shown) [pindolol]	median time needed to achieve a sustained antidepressant response [9]: significantly reduced the median time
		pindobind	antineoplastic activity in vitro [10]: antineoplastic activity; growth of PC3 cell line in vivo [11]: inhibited the growth

Compound	IC50 [2, 12] [nM]	IC50 [4] [nM]	also measured
COc1ccccc1C1=CCN(C[C@@H](CC2CCCCC2)NC(=O)C2(C)CCCCC2)CC1 [Example 21, 1-Methyl-cyclohexanecarboxylic Acid {(1R)-1-Cyclohexylmethyl-2-[4-(2-methoxyphenyl)-3,6-dihydro-2H-pyridin-1-yl]-ethyl}-amide]		45.5	IC50 [2]: 2.75 nM
